Experimental data taken from patent US20230003721A1, “MITOTHERAPEUTICS FOR THE TREATMENT OF BRAIN DISORDERS” (The University of Florida Research Foundation, Inc., priority 2019, published 2023).
Structures can show the parent of a compound that is named as a salt.

Columns and labels:
primary neurons [1] = assay: TMRM fluorescence assay of inner mitochondrial membrane potential (ΔΨm); conditions: for TMRM Primary: primary screen; for TMRM Primary / TMRM Rescreen: 24 h; for Emax / EC50: Mus musculus, Primary neuron; for Emax: read-out: TMRM (Effect-size); for EC50: read-out: TMRM-EC50
primary neurons [2] = assay: CellTiter-Glo luminescence-based ATP assay; format: cell-based, mouse; conditions: for ATP: ATP orthogonal screen, 24 h; for EC50 / Emax: Mus musculus, Primary neuron, dose response; for EC50: 15 concentrations from 6 nM to 100 uM; for Emax: maximal percent increase relative to in-plate DMSO controls, read-out: ATP (Effect-size)
Summary of the method: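 Primary neurons treated from DIV13 for 24 h with compound or DMSO. After part of the medium was removed, CellTiter-Glo reagent was added; plates were shaken 10 min at 200 rpm, kept 2 min in the dark at room temperature, and luminescence read as total ATP.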

[3] = system: primary forebrain neurons; assay: cells; conditions: 12.5 μM; for Dendritic Mt CA / Neurite Area: rescreen, 24 h, vs DMSO wells
Method: Primary forebrain cell culture and maintenance. Forebrains of P0 Mt or Mt/Ai14 pups without olfactory bulbs and meninges were collected and placed in ice cold Ca^2+ and Mg^2+ free HBSS supplemented with 2 μg/ml gentamicin, 25 mM D-glucose, 1 mM pyruvate and 20 mM HEPES. Brain tissue was digested with 0.6 mg/ml papain at 37° C. for 20 min. Forebrains were washed with plating media [Neurobasal (Gibco), 5% FBS, 4 mM GlutaMAX (Gibco), 2 μg/ml gentamicin]. The tissue was gently triturated, allowed to settle and the supernatant was filtered through a 40 μm mesh-sized cell strainer. Cells were centrifuged at 420×g for 4 min and resuspended in plating media. 15,000 cells per well were plated with 2×10^8 viral particles/ml onto black Greiner μClear (Cat #781946) or Ultra-Low Base Aurora with evaporation barrier (Cat #ABE201201B) 384-well plates (80 μl/well) pre-coated with poly-D-lysine for the primary screen and rescreen, respectively. Plating and media changes were performed using an automated Biomek FX^P liquid handling workstation. Four hr after plating, 75% of the plating media was replaced by feeding media [Neurobasal-A (Gibco), 4 mM GlutaMAX (Gibco), 2 μg/ml gentamicin, 2% B27 (Gibco)]. At DIV4, 50% of the media was exchanged with fresh feeding media supplemented with 16 μM 5-Fluoro-2′-deoxyuridine (FUdR) to prevent glial cell over-growth. At DIV8 and DIV12, additional 50% media changes were made without FUdR. Cells were maintained at 37° C. and 5% CO2; plates were topped with Breathe-Easy adhesive membranes (Greiner plates) to minimize evaporation.
Compounds and compound transfer.
Imaging. Images were captured using a GE Incell 6000 system (60× objective, 0.95 NA, 16-bit images) equipped with environmental control (37° C., 5% CO2). Mt-GFP (green channel) was imaged by confocal imaging (3 slices, Δz=0.7 μm, aperture=1.0 AU, λexc=488 nm, λem=515-535 nm). Cyto-tdTomato (red channel) and MitoTracker Orange (red channel) were imaged using confocal mode (3 slices, Δz=0.7 μm, aperture=1.0 AU, λexc=561 nm, λem=569-641 nm, MitoTracker Orange) or with widefield mode (Cyto-tdTomato). TMRM imaged for the co-localization experiments with Mt-GFP was imaged using the confocal mode (3 slices, […] aperture=1.0, λexc=488, λem=569-641 nm). For the live-dead assay, primary neurons were imaged with a 20× (widefield mode, NA 0.45) objective using λexc=561 nm and λem=569-641 nm for the propidium iodide stained dead cells (red channel), and λexc=488 nm and λem=515-535 nm for the fluorescein diacetate stained live cells (green channel). 10 fields were collected from each well, and 4 wells were imaged/condition in the live-dead assay. For all other experiments, 4 fields/well were imaged unless otherwise stated.
Automated data analysis pipeline. Most experiments utilized only Mt-GFP; some utilized both Mt-GFP and Cyto-tdTomato. The Z-projected images were preprocessed using a custom Fiji macro. For preprocessing of Mt-GFP images: background was subtracted (rolling ball, radius=3), images were median filtered (radius=1) and somatic mitochondria were removed. For removal of the somatic mitochondria, they were first segmented and then a somatic mitochondrial mask overlaid on the image.

primary neurons [4] = assay: Mitochondrial morphology and neurite area after functional modulators; format: cell-based, mouse; set-up: key to Neurite Area: non-significant (n.s.); conditions: significant change
Method: Mitochondrial morphology and neurite area measurements. Mitochondrial morphology and neurite area were quantified using methods described by Varkuti et al, 2020. Briefly, Cre-dependent mitochondrial targeted GFP2 (mito-GFP) ROSA26 knock-in mice were crossed with Ai14 (007908, The Jackson Laboratory) expressing cytosolic-tdTomato, and the forebrain of P0 pups were isolated and primary neurons were cultured as described above. AAV9 virus containing the iCRE sequence driven by the neuron specific CaMKII promoter was added to the cell culture at plating and 75% of the media replaced 4 h after plating. […] Z-projected images of the green channel were preprocessed (background subtraction: rolling ball, radius=3; median filtering: radius=1) and somatic mitochondria were removed (see details in Varkuti et al, Science Advances 6 (2020) eaaw8702). Red channel images were also preprocessed (tubeness filter, soma removal). Preprocessed images were segmented by GE Developer software (object-based, kernel size: 3). […] The length and circularity measurements for mitochondria were aggregated using the median and the area for neurites using the sum. After removing empty fields and outlier values from the fields, aggregated field values were averaged to well values (4 fields/well, 12 wells/compound). Robust Z-scores were calculated using DMSO-treated wells for each well ((mediancompound−medianDMSO)/median absolute deviationDMSO), well values were averaged for each compound.
A high-content assay was developed in parallel to monitor aspects of mitochondrial dynamics in primary cultured neurons that conditionally express (Cre recombinase dependent) mitochondrial-tagged GFP and cytosolic tdTomato reporters (Varkuti et al., 2020). We monitored two aspects of neuritic mitochondrial dynamics: (1) the health of mitochondria as measured by the average circularity of axonal mitochondria, since defective mitochondria targeted for mitophagy become circular in shape, and (2) the balance between fission/fusion measured by the average length of dendritic mitochondria. […] FIG. 19A illustrates the results of surveying a collection of functional modulators selected from 5 different structural clusters (FIG. 17), quantified as robust z-scores relative to DMSO-treated control neurons.

Row | Compound | TMRM Primary (primary neurons [1]; 12.5 μM) | TMRM Rescreen (primary neurons [1]) | ATP (primary neurons [2]) | Dendritic Mt CA [3] | Neurite Area [3] | also measured
1 | Cc1ccc([C@@H]2O[C@H](CO)[C@@H](O)[C@H](O)[C@H]2O)cc1Cc1ccc(-c2ccc(F)cc2)s1 [CANAGLIFLOZIN] | 4.55 Z-scores | 6.36 Z-scores | 3.13 Z-scores | 2.93 robust Z-scores | 0.74 robust Z-scores | –
2 | Clc1ccc(Cn2c(CN3CCCC3)nc3ccccc32)cc1 [CLEMIZOLE HYDROCHLORIDE] | 3.54 Z-scores | 5.90 Z-scores | 4.16 Z-scores | 2.54 robust Z-scores | −0.66 robust Z-scores | –
3 | CN1CCN(C(c2ccccc2)c2ccccc2)CC1 [CYCLIZINE] | 3.41 Z-scores | 5.91 Z-scores | 5.18 Z-scores | 2.82 robust Z-scores | −0.03 robust Z-scores | –
4 | COC(=O)C[C@H]1C(C)(C)[C@@H](OC(C)=O)[C@@H]2CC3C4CC(=O)O[C@@H](c5ccoc5)[C@]4(C)CCC3[C@@]1(C)C2=O (some centres unmarked) [DIHYDROFISSINOLIDE] | 3.94 Z-scores | 4.61 Z-scores | 5.15 Z-scores | 2.77 robust Z-scores | 4.24 robust Z-scores | –
5 | CCCCCCOc1ccccc1C(N)=O [EXALAMIDE] | 3.39 Z-scores | 4.57 Z-scores | 6.10 Z-scores | 2.43 robust Z-scores | 3.42 robust Z-scores | –
6 | CN1CCOC(c2ccccc2)c2ccccc2C1 (centres unmarked) [NEFOPAM] | – | – | – | 3.74 robust Z-scores | −0.44 robust Z-scores | –
7 | CCN(CC)CCOCCOC(=O)C(CC)(CC)c1ccccc1.O=C(O)CC(O)(CC(=O)O)C(=O)O [OXELAIDIN CITRATE] | 4.27 Z-scores | 6.44 Z-scores | 2.73 Z-scores | 2.59 robust Z-scores | −1.31 robust Z-scores | –
8 | C#CCN(C)Cc1ccccc1 [PARGYLINE HYDROCHLORIDE] | – | – | – | 3.75 robust Z-scores | 2.51 robust Z-scores | –
9 | O=C(CCc1ccc(O)cc1)c1c(O)cc(O)cc1O [PHLORETIN] | – | – | – | 2.73 robust Z-scores | 1.23 robust Z-scores | –
10 | CN1CCC(=C2c3ccccc3Sc3ccccc32)CC1 [PIMETHIXENE MALEATE] | 3.95 Z-scores | 5.12 Z-scores | 4.56 Z-scores | 2.57 robust Z-scores | −2.10 robust Z-scores | –
11 | OC(CCN1CCCCC1)(c1ccccc1)c1ccccc1 [PRIDINOL METHANESULFONATE] | 5.88 Z-scores | 6.92 Z-scores | 5.46 Z-scores | 2.86 robust Z-scores | 1.80 robust Z-scores | Emax (primary neurons [1]): 20.6%; EC50 (primary neurons [1]): 3900 nM; EC50 (primary neurons [2]): 1650 nM; Emax (primary neurons [2]): 15.7%
12 | COc1ccc(CN(CCN(C)C)c2ccccn2)cc1 [PYRILAMINE MALEATE] | – | – | – | 2.65 robust Z-scores | 0.78 robust Z-scores | –
13 | COc1ccc(/C=C/c2cc(O)cc(O)c2)cc1 [RESVERATROL 4′-METHYL ETHER] | – | – | – | 3.68 robust Z-scores | 0.02 robust Z-scores | confirmation in the re-screen ([3]; 10 replicate plates): weak hits
14 | COc1ccc2c(c1O)-c1c(OC)c(OC)cc3c1[C@H](C2)N(C)CC3 [S-ISOCORYDINE (+)] | – | – | – | 2.82 robust Z-scores | 0.78 robust Z-scores | –
15 | O=C(O[C@H]1CN2CCC1CC2)N1CCc2ccccc2[C@@H]1c1ccccc1 [SOLIFENACIN SUCCINATE] | – | – | – | 5.06 robust Z-scores | 1.42 robust Z-scores | –
16 | Cc1cccc(N(C)C(=S)Oc2ccc3ccccc3c2)c1 [TOLNAFTATE] | – | – | – | 2.93 robust Z-scores | 1.01 robust Z-scores | –
17 | Cc1cccc(C)c1N=C1NCCCS1 [XYLAZINE] | – | – | – | 3.66 robust Z-scores | 0.40 robust Z-scores | –
18 | CCCCOc1cc(C(=O)OCCN(CC)CC)ccc1N [benoxinate hydrochloride] | 3.62 Z-scores | 6.64 Z-scores | 5.57 Z-scores | – | – | Mitochondrial Morphology (primary neurons [4]): elongated; Neurite Area (primary neurons [4]): n.s.; Emax (primary neurons [1]): 21%; EC50 (primary neurons [1]): 490 nM; EC50 (primary neurons [2]): 80 nM; Emax (primary neurons [2]): 21.4%
19 | Cc1ccc(-c2cc(C(F)(F)F)nn2-c2ccc(S(N)(=O)=O)cc2)cc1 [celecoxib] | 6.67 Z-scores | 4.72 Z-scores | 7.57 Z-scores | – | – | Neurite Area (primary neurons [4]): n.s.; hit in TMRM primary screen when assayed at 4 h (primary neurons [1]; 12.5 μM, 4 h): celecoxib*; Emax (primary neurons [1]): 27.5%; EC50 (primary neurons [1]): 5180 nM; EC50 (primary neurons [2]): 490 nM; Emax (primary neurons [2]): 20.7%
20 | AVOCATIN A | – | – | – | 4.14 robust Z-scores | 3.48 robust Z-scores | –
